Results: patent publication US6720324B2, “Selective melanin concentrating hormone-1 (MCH1) receptor antagonists and uses thereof” (Synaptic Pharmaceutical Corporation, priority 2000, dated 2004)
Where two headings read alike, the source gives them in different places.

Tests used:
[1] = biological target: T1, human NPY1 (Homo sapiens, UniProt P25929); assay: Radioligand binding assay, cloned receptor; conditions: read-out: hNPY1 Ki
T1 construct: expressed in transfected cells
T1 sequence (P25929 1-384): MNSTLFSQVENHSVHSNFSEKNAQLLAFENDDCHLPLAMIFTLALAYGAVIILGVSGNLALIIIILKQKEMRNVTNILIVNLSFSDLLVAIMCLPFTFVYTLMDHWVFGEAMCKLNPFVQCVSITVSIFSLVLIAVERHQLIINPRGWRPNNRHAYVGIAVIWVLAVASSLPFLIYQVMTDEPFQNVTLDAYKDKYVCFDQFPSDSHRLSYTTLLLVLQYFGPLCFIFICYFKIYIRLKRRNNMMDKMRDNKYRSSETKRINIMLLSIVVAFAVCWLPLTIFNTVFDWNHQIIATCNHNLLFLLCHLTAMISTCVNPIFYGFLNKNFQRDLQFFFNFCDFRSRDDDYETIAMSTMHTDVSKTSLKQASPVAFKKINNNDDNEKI
Experimental: (§1) For binding assays, pellets of transfected cells are suspended in ice-cold buffer (20 mM Tris.HCl, 5 mM EDTA, pH 7.4) and homogenized by sonication for 7 sec. The cell lysates are centrifuged at 200×g for 5 min at 4° C. The supernatants are then centrifuged at 40,000×g for 20 min at 4° C. The resulting pellets are washed once in the homogenization buffer and suspended in binding buffer (see methods for radioligand binding). Protein concentrations are determined by the method of Bradford (1976) using bovine serum albumin as the standard. Binding assays are usually performed immediately, however it is possible to prepare membranes in batch and store frozen in liquid nitrogen for future use.
(§2) The methods to obtain the cDNA of the human NPY1, NPY5, GALR1, GALR2, and GALR3 and rat 5-HT2C receptors, express said receptors in heterologous systems, and carry out assays to determine binding affinity are described in the following publications and above: human NPY1 (Larhammar et al., 1992), human NPY5 (U.S. Pat. No. 5,602,024, the disclosure of which is hereby incorporated by reference in its entirety into this application), human Gal1 (Habert-Ortoli et al., 1994), human Gal2 (Smith et al., 1997), human Gal3 (Smith et al., 1998), and rat 5-HT2C (Julius et al., 1988).

[2] = biological target: T2, human NPY5 (Homo sapiens, UniProt Q15761); assay: Radioligand binding assay, cloned receptor; conditions: read-out: hNPY5 Ki
T2 construct: expressed in transfected cells
T2 sequence (Q15761 1-445): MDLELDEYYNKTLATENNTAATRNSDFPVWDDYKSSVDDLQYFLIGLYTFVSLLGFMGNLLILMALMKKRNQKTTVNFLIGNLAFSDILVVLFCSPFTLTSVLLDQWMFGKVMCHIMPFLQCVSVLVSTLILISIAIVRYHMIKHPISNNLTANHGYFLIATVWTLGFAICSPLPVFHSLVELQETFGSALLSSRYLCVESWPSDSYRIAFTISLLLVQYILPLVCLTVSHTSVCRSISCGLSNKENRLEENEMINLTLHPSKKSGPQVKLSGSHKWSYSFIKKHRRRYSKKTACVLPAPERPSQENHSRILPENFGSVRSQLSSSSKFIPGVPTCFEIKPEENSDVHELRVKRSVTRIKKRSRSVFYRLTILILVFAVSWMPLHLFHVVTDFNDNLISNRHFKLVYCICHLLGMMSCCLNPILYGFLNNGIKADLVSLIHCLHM
Experimental: as §1, §2

[3] = biological target: human MCH1 receptor (Homo sapiens, UniProt Q99705); assay: Functional assay: intracellular calcium mobilization (antagonist potency Kb); type: cell-based; design: expressed in transfected cells; host or cells: COS-7 cells, transient, DEAE-dextran, plasmid pEXJ.HR-TL231 (ATCC 203197)
Chain of human MCH1 receptor (Q99705 whole entry): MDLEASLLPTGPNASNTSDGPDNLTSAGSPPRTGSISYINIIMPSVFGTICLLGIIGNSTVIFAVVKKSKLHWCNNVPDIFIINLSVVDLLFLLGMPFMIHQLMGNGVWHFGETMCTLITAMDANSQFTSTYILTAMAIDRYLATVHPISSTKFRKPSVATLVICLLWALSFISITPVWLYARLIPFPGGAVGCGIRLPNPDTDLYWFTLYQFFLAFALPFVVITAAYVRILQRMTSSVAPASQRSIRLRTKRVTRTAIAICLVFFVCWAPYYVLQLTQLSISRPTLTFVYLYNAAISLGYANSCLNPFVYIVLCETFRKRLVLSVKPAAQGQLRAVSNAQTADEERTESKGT
Experimental: Intracellular calcium mobilization assays for the MCH1 receptor were carried out using plasmid pEXJ.HR-TL231 (ATCC Accession No. 203197). COS-7 cells were transiently transfected with DNA encoding the MCH1 receptor utilizing the DEAE-dextran method as described above. The intracellular free calcium concentration was measured by fluorescent imaging using the calcium sensitive fluorscent dye Fluo-3. COS-7 cells expressing the human MCH1 receptor were seeded onto sterile 96 well plates, washed with Hank's balanced salt solution (HBSS), containing 20 mM HEPES, 2.5 mM probenecid, and 0.1% BSA, and loaded with the same buffer containing 3.8 μM Fluo-3 for 1 hour at 37° C. After washing with HBSS to remove the fluo-3 solution, cells were equilibrated for 10 minutes.

“2-(3,4-DIFLUOROPHENYL)4,5-DIHYDROIMIDAZOLE-1-CARBOXYLIC ACID {3-[4-PHENYL-4-(4-BROMO-5-METHYLTHIOPNEN-2-YL)]PROPYL}-AMIDE [Example 19]” gave a Ki ([1]; Table 2) of over 50000 nM, a Ki ([1]; Table 3) of over 50000 nM and a Ki ([2]; Table 2) of over 50000 nM. It also gave a Ki ([2]; Table 3) of over 50000 nM, a Kb ([3]; Table 1, cloned human MCH1 receptor, functional assay, read-out: Kb (nM) hMCH1) of 7 nM and a Kb ([3]; Table 2, antagonist potency at the human MCH1 receptor, read-out: hMCH1 Kb) of 7 nM. The Kb ([3]; Table 3, antagonist potency at the human MCH1 receptor, read-out: hMCH1 Kb) was 7 nM.
